These results are taken from patent US7524964B2, “Tetrahydrothiopyrano pyrazole cannabinoid modulators” (Janssen Pharmaceutica NV, priority 2005, dated 2009).

Like-named read-outs stand apart in the source and are kept apart here.

The target in one experiment is T1, human CB-2 receptor (Homo sapiens, UniProt P34972).
T1 construct: expressed in transfected cells; host or cells: SK-N-MC cells, pcDNA3 CB-2 (human), semi-purified membranes
Kind of experiment: Binding assay, cannabinoid CB2 receptor ([3H]-CP-55,940 displacement). The following applies: read-out: CB2 binding percent inhibition. Here is the method:
(§1) Binding Assay for CB1 or CB2 Agonists or Inverse Agonists
(§2) The human CB-1 and CB-2 receptors were stably expressed in SK-N-MC cells transfected with pcDNA3 CB-1 (human) or pcDNA3 CB-2 (human). The cells were grown in T-180 cell culture flasks under standard cell culture conditions at 37° C. in a 5% CO2 atmosphere. The cells were harvested by trypsinization and homogenized in a homogenization buffer (10 mM Tris, 0.2 mM MgCl2, 5 mM KCl, with protease inhibitors aprotinin, leupeptin, pepstatin A and bacitracin) and centrifuged (2000 g). The supernatant was then centrifuged in 2M sucrose (31,300 g) to produce a semi-purified membrane pellet. The pellet was resuspended in homogenization and store at −80° C.
(§3) On the day of the assay, the pellet was thawed on ice and diluted in assay buffer (50 mM Tris-HCl, 5 mM MgCl2, 2.5 mM EDTA, 0.5 mg/mL fatty acid free bovine serum albumin, pH 7.5). The diluted membrane was added with buffer, test compound or standard and the radioligand [H]^3+-CP-55,940_(0.2 nM) to the wells of a 96-well polypropylene plate. Non-specific binding was measured in wells containing 10 uM WIN 55,212. The plate was covered and incubated for 90 minutes at 30° C. The contents were then aspirated onto a Packard Unifilter G/C filter bottom plate prewet with 0.5% polyethyleneimine. The wells of the polypropylene plate were rinsed and aspirated seven times with a 0.9% saline-0.5% Tween 20 solution. The Unifilter plate was dried, a scintillation cocktail was added to each well and the counts representing binding were quantitated in a TopCount scintillation counter.
(§4) The IC50 binding values for compounds tested were calculated by linear regression and were obtained from studies in which varying compound concentrations were used. Where an IC50 was not obtained, test results are provided as percent inhibition at a test concentration of ^a0.2 μM, ^b1 μM or ^c10 μM.

Another experiment addresses human CB1 receptor (Homo sapiens, UniProt P21554). Kind of experiment: Binding assay, cannabinoid CB1 receptor ([3H]-CP-55,940 displacement). Also noted: expressed in transfected cells; host or cells: SK-N-MC cells, pcDNA3 CB-1 (human), semi-purified membranes. The settings on record: for inhibition at 0.2 µM: test concentration 0.2 μM (superscript a). Here is the method: as §1, §2, §3, §4

The mark [1] stands for this setting: test concentration 0.2 μM (superscript a).
Where [2] appears, read: read-out: CB1 binding percent inhibition.

human CB1 receptor, sequence (P21554 whole entry): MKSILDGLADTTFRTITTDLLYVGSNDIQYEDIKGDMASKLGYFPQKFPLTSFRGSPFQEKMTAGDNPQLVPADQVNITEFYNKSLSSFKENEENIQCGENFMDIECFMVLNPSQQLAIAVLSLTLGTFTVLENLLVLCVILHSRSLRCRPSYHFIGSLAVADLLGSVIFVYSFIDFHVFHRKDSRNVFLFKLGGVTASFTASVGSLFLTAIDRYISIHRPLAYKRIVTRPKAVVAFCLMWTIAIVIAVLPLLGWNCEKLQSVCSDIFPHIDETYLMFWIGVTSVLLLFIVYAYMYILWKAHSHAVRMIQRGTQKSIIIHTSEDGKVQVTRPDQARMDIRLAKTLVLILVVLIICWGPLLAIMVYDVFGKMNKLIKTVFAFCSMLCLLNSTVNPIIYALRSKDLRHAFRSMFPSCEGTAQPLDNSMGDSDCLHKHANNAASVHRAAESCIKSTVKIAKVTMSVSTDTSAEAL
T1 sequence (P34972 whole entry): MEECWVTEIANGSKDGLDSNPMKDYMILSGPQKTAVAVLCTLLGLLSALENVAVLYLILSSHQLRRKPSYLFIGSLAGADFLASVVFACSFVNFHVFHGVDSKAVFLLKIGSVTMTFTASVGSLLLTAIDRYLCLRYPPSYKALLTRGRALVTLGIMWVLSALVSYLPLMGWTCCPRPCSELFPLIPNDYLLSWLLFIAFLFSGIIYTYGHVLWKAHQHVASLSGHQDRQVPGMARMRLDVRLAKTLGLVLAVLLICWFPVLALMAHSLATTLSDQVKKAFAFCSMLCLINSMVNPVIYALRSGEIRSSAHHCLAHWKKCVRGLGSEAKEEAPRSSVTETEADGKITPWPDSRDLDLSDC

Turning to `O=C(NN1CCCCC1)c1nn(-c2ccc(Cl)cc2Cl)c2c1CS(=O)(=O)C/C2=C\c1ccc(Cl)o1` [Cpd 119, (7Z)-7-(5-chloro-furan-2-ylmethylene)-1-(2,4-dichloro-phenyl)-5,5-dioxo-4,5,6,7-tetrahydro-1H-5λ^6-thiopyrano[4,3-c]pyrazole-3-carboxylic acid piperidin-1-ylamide], at human CB-2 receptor (setting [1]), the inhibition at 0.2 µM turned out to be 17%. This molecule gave an IC50 on human CB1 receptor of 81 nM.

For `O=C(NN1CCN(CCO)CC1)c1nn(-c2ccc(Cl)cc2Cl)c2c1CSC/C2=C\c1ccc(F)cc1` [Cpd 114, (7Z)-1-(2,4-dichloro-phenyl)-7-(4-fluoro-benzylidene)-1,4,6,7-tetrahydro-thiopyrano[4,3-c]pyrazole-3-carboxylic acid [4-(2-hydroxy-ethyl)-piperazin-1-yl]-amide], the inhibition at 0.2 µM on human CB-2 receptor (setting [1]) is 5%; on human CB1 receptor (setting [2]) it was 6%.

On to `O=C(NN1CCCCC1)c1nn(-c2ccc(F)cc2F)c2c1CS(=O)(=O)C/C2=C\c1ccc(F)cc1` [Cpd 106, (7Z)-1-(2,4-difluoro-phenyl)-7-(4-fluoro-benzylidene)-5,5-dioxo-4,5,6,7-tetrahydro-1H-5λ^6-thiopyrano[4,3-c]pyrazole-3-carboxylic acid piperidin-1-ylamide], for which the inhibition at 0.2 µM at human CB-2 receptor (setting [1]) came to 6%; at human CB1 receptor (setting [2]), 32%.

Consider `C[C@@H](NC(=O)c1nn(-c2ccc(Cl)cc2Cl)c2c1CS(=O)(=O)C/C2=C\c1ccc(F)cc1)c1ccccn1` [Cpd 124, (7Z)-1-(2,4-dichloro-phenyl)-7-(4-fluoro-benzylidene)-5,5-dioxo-4,5,6,7-tetrahydro-1H-5λ^6-thiopyrano[4,3-c]pyrazole-3-carboxylic acid [(1R)-1-(pyridin-2-yl)-ethyl]-amide], for which the inhibition at 0.2 µM at human CB-2 receptor (setting [1]) is 12%. On human CB1 receptor, this molecule yielded an IC50 of 5 nM.

As for `O=C(NN1CCCCC1)c1c2c(nn1-c1ccc(Cl)cc1Cl)/C(=C/c1ccc(F)cc1)CS(=O)(=O)C2` [Cpd 83, (7Z)-2-(2,4-dichloro-phenyl)-7-(4-fluoro-benzylidene)-5,5-dioxo-4,5,6,7-tetrahydro-2H-5λ^6-thiopyrano[4,3-c]pyrazole-3-carboxylic acid piperidin-1-ylamide], on human CB-2 receptor (setting [1]), the inhibition at 0.2 µM stood at 17%. At human CB1 receptor, this molecule had an IC50 of 27 nM.

Consider `C[C@H](NC(=O)c1nn(-c2ccc(Cl)cc2Cl)c2c1CS(=O)(=O)C/C2=C\c1ccc(F)cc1)c1ccccc1` [Cpd 65, (7Z)-1-(2,4-dichloro-phenyl)-7-(4-fluoro-benzylidene)-5,5-dioxo-4,5,6,7-tetrahydro-1H-5λ^6-thiopyrano[4,3-c]pyrazole-3-carboxylic acid [(1S)-1-phenyl-ethyl]-amide], for which the inhibition at 0.2 µM on human CB-2 receptor (setting [1]) worked out at 17%. Also, at human CB1 receptor, the half-maximal inhibitory concentration (IC50) came to 5 nM.

Take `O=C(N[C@@H]1c2ccccc2C[C@@H]1O)c1nn(-c2ccc(Cl)cc2Cl)c2c1CSC/C2=C\c1ccc(F)cc1` [Cpd 58, (7Z)-1-(2,4-dichloro-phenyl)-7-(4-fluoro-benzylidene)-1,4,6,7-tetrahydro-thiopyrano[4,3-c]pyrazole-3-carboxylic acid [(1R,2S)-2-hydroxy-indan-1-yl]-amide]: at human CB-2 receptor, the inhibition at 0.2 µM is 25%. On human CB1 receptor, this molecule showed a concentration for half-maximal inhibition (IC50) of 40 nM.

Take `C[C@H](NS(=O)(=O)/C=C/c1n[nH]c2c1CSCC2Cc1cccc(F)c1)c1ccccc1` (stereo partly drawn) [Cpd 47, (E)-2-[7-(3-fluoro-benzyl)-1,4,6,7-tetrahydro-thiopyrano[4,3-c]pyrazol-3-yl]-ethenesulfonic acid [(1S)-1-phenyl-ethyl]-amide]: the values for the inhibition at 0.2 µM on human CB-2 receptor (setting [1]) and at human CB1 receptor (setting [2]) were 26% and 24%, respectively.

For `C[C@@H](NC(=O)c1nn(-c2ccc(Cl)cc2Cl)c2c1C[S+]([O-])C/C2=C\c1ccc(F)cc1)c1ccccc1` (stereo partly drawn) [Cpd 75, (7Z)-1-(2,4-dichloro-phenyl)-7-(4-fluoro-benzylidene)-5-oxo-4,5,6,7-tetrahydro-1H-5λ^4-thiopyrano[4,3-c]pyrazole-3-carboxylic acid [(1R)-1-phenyl-ethyl]-amide], the inhibition at 0.2 µM at human CB-2 receptor (setting [1]) is 2%. For the same molecule, the half-inhibitory concentration (IC50) on human CB1 receptor is 14 nM.

`O=C(N[C@@H]1c2ccccc2C[C@@H]1O)c1nn(-c2ccc(F)cc2F)c2c1CS(=O)(=O)CC2Cc1cccc(F)c1` (stereo partly drawn) [Cpd 51, 1-(2,4-difluoro-phenyl)-7-(3-fluoro-benzyl)-5,5-dioxo-4,5,6,7-tetrahydro-1H-5λ^6-thiopyrano[4,3-c]pyrazole-3-carboxylic acid [(1R,2S)-2-hydroxy-indan-1-yl]-amide]: the inhibition at 0.2 µM on human CB-2 receptor (setting [1]) was 9%; at human CB1 receptor (setting [2]), 35%.

As for `C[C@@H](NC(=O)c1c2c(nn1-c1ccc(Cl)cc1Cl)/C(=C/c1ccc(F)cc1)CS(=O)(=O)C2)C1CCCCC1` [Cpd 84, (7Z)-2-(2,4-dichloro-phenyl)-7-(4-fluoro-benzylidene)-5,5-dioxo-4,5,6,7-tetrahydro-2H-5λ^6-thiopyrano[4,3-c]pyrazole-3-carboxylic acid [(1R)-1-cyclohexyl-ethyl]-amide], at human CB-2 receptor (setting [1]), the inhibition at 0.2 µM came out at 17%. The same molecule registered an IC50 at human CB1 receptor of 2 nM.

`O=C(NN1CC2CCCC2C1)c1nn(-c2ccc(Cl)cc2Cl)c2c1CS(=O)(=O)C/C2=C\c1ccc(F)cc1` (centres unmarked) [Cpd 104, (7Z)-1-(2,4-dichloro-phenyl)-7-(4-fluoro-benzylidene)-5,5-dioxo-4,5,6,7-tetrahydro-1H-5λ^6-thiopyrano[4,3-c]pyrazole-3-carboxylic acid (hexahydro-cyclopenta[c]pyrrol-2-yl)-amide]: the inhibition at 0.2 µM is 10% at human CB-2 receptor (setting [1]) and 76% at human CB1 receptor (setting [2]).

`O=S(=O)(/C=C/c1nn(-c2ccc(F)cc2F)c2c1CSCC2Cc1cccc(F)c1)NN1CCCCC1` (centres unmarked) [Cpd 40, (E)-2-[1-(2,4-difluoro-phenyl)-7-(3-fluoro-benzyl)-1,4,6,7-tetrahydro-thiopyrano[4,3-c]pyrazol-3-yl]-ethenesulfonic acid piperidin-1-ylamide]: the inhibition at 0.2 µM worked out at 10% at human CB-2 receptor (setting [1]) and 12% at human CB1 receptor (setting [2]).

Consider `NC(=O)c1nn(-c2ccc(Cl)cc2Cl)c2c1CS(=O)(=O)C/C2=C\c1ccc(F)cc1` [Cpd 71, (7Z)-1-(2,4-dichloro-phenyl)-7-(4-fluoro-benzylidene)-5,5-dioxo-4,5,6,7-tetrahydro-1H-5λ^6-thiopyrano[4,3-c]pyrazole-3-carboxylic acid amide], for which the results for the inhibition at 0.2 µM on human CB-2 receptor (setting [1]) and at human CB1 receptor (setting [2]) were 13% and 18%, respectively.

Take `C[C@@H](NS(=O)(=O)/C=C/c1nn(Cc2ccccc2)c2c1CSCC2)C1CCCCC1` [Cpd 11, (E)-2-(1-benzyl-1,4,6,7-tetrahydro-thiopyrano[4,3-c]pyrazol-3-yl)-ethenesulfonic acid [(1R)-1-cyclohexyl-ethyl]-amide]: the inhibition at 1 µM on human CB-2 receptor (test concentration 1 μM (superscript b)) is 39%; on human CB1 receptor (test concentration 1 μM (superscript b), read-out: CB1 binding percent inhibition), 29%.

Consider `COC[C@@H]1CCCN1NC(=O)c1nn(-c2ccc(Cl)cc2Cl)c2c1CS(=O)(=O)C/C2=C\c1ccc(F)cc1` [Cpd 125, (7Z)-1-(2,4-dichloro-phenyl)-7-(4-fluoro-benzylidene)-5,5-dioxo-4,5,6,7-tetrahydro-1H-5λ^6-thiopyrano[4,3-c]pyrazole-3-carboxylic acid [(2S)-2-(methoxymethyl)-pyrrolidin-1-yl]-amide], for which the inhibition at 0.2 µM on human CB-2 receptor (setting [1]) is 8%. In addition, the half-maximal inhibitory concentration (IC50) at human CB1 receptor was determined as 58 nM.

On to `CC(C)(C)OC(=O)N1CCN(NC(=O)c2nn(-c3ccc(Cl)cc3Cl)c3c2CSC/C3=C\c2ccc(F)cc2)CC1` [Cpd 64, 4-{[(7Z)-1-(2,4-dichloro-phenyl)-7-(4-fluoro-benzylidene)-1,4,6,7-tetrahydro-thiopyrano[4,3-c]pyrazole-3-carbonyl]-amino}-piperazine-1-carboxylic acid tert-butyl ester], for which the inhibition at 0.2 µM on human CB-2 receptor is 0%. In addition, on human CB1 receptor, the IC50 was 24 nM.

For `O=C(NN1CC2CCCC2C1)c1nn(-c2ccc(Cl)cc2Cl)c2c1CS(=O)(=O)C/C2=C\c1ccc(Cl)o1` (centres unmarked) [Cpd 121, (7Z)-7-(5-chloro-furan-2-ylmethylene)-1-(2,4-dichloro-phenyl)-5,5-dioxo-4,5,6,7-tetrahydro-1H-5λ^6-thiopyrano[4,3-c]pyrazole-3-carboxylic acid (hexahydro-cyclopenta[c]pyrrol-2-yl)-amide], the inhibition at 0.2 µM on human CB-2 receptor (setting [1]) is 15%. In addition, the IC50 on human CB1 receptor amounted to 48 nM.

For `O=C(NN1CC2CCCC2C1)c1nn(-c2ccc(Cl)cc2)c2c1CS(=O)(=O)C/C2=C\c1ccc(F)cc1` (centres unmarked) [Cpd 97, (7Z)-1-(4-chloro-phenyl)-7-(4-fluoro-benzylidene)-5,5-dioxo-4,5,6,7-tetrahydro-1H-5λ^6-thiopyrano[4,3-c]pyrazole-3-carboxylic acid (hexahydro-cyclopenta[c]pyrrol-2-yl)-amide], the inhibition at 0.2 µM on human CB-2 receptor (setting [1]) was found to be 8%. The molecule also gave an IC50 at human CB1 receptor of 68 nM.

A word on the inhibition: it is the percentage by which the read-out fell short of the control. Broadly, the IC50 is the concentration at which inhibition is half-maximal.
